Tests used:
[1] = Octanol/water partition coefficient, logP of compound incubated for 1 hr by UV-visible spectrophotometry; format: physicochemical
[2] = Binding affinity to HSP90 (unknown origin) assessed as dissociation constant by isothermal titration calorimetry; parameters: species or system Homo sapiens
[3] = tested on: A549; experiment: Antiproliferative activity against human A549 cells assessed as reduction in cell growth incubated for 72 hrs by SRB assay; format: functional, cell-based; settings: A549, 72 h
[4] = Cytotoxicity against human HDF cells assessed as reduction in cell growth incubated for 72 hrs by SRB assay; format: cell-based; settings: HDFa
[5] = Selectivity index, ratio of IC50 for cytotoxicity against human HDF cells to IC50 for cytotoxicity against human SK-OV-3 cells
[6] = Selectivity index, ratio of IC50 for cytotoxicity against human HDF cells to IC50 for cytotoxicity against human SK-BR-3 cells; format: toxicity, cell-based; settings: HDF cells versus SK-BR-3 cells, read-out: Ratio IC50
[7] = tested on: U-87 MG; experiment: Antiproliferative activity against human U-87 MG cells assessed as reduction in cell growth incubated for 72 hrs by SRB assay; format: functional, cell-based, U-87MG ATCC
[8] = tested on: SK-OV-3; experiment: Antiproliferative activity against human SK-OV-3 cells assessed as reduction in cell growth incubated for 72 hrs by SRB assay; format: functional, cell-based; settings: SK-OV-3, 72 h
[9] = Selectivity index, ratio of IC50 for cytotoxicity against human HDF cells to IC50 for cytotoxicity against human U-87 MG cells; format: toxicity, cell-based; settings: HDF cells versus U-87 MG cells, read-out: Ratio IC50
[10] = tested on: SK-BR-3; experiment: Antiproliferative activity against human SK-BR-3 cells assessed as reduction in cell growth incubated for 72 hrs by SRB assay; format: functional, cell-based; settings: SK-BR-3, 72 h
[11] = Selectivity index, ratio of IC50 for cytotoxicity against human HDF cells to IC50 for cytotoxicity against human PC-3 cells; format: toxicity, cell-based; settings: HDF cells versus PC-3 cells, read-out: Ratio IC50
[12] = Selectivity index, ratio of IC50 for cytotoxicity against human HDF cells to IC50 for cytotoxicity against human A549 cells; format: toxicity, cell-based; settings: HDF cells versus A549 cells, read-out: Ratio IC50
[13] = tested on: PC-3; experiment: Antiproliferative activity against human PC-3 cells assessed as reduction in cell growth incubated for 72 hrs by SRB assay; format: functional, cell-based; settings: PC-3, 72 h

| SMILES | logP at 1 h [1] | Kd [2] [nM] | IC50 [3] [nM] | IC50 [4] [nM] | Ratio IC50 [5] | selectivity ratio [6] | IC50 [7] [nM] | IC50 [8] [nM] | selectivity ratio [9] | IC50 [10] [nM] | selectivity ratio [11] | selectivity ratio [12] | IC50 [13] [nM] |
| --- | --- | --- | --- | --- | --- | --- | --- | --- | --- | --- | --- | --- | --- |
| COCCOCCOCCNC1=C2C[C@@H](C)C[C@H](OC)[C@H](O)[C@@H](C)/C=C(\C)[C@H](OC(N)=O)[C@@H](OC)/C=C\C=C(/C)C(=O)NC(=CC1=O)C2=O | 2.02 | 1370 | 910 | 2770 | 3.74 | 2.98 | 790 | 740 | 3.51 | 930 | 3.42 | 3.04 | 810 |
| C#CCCN1CCC(NC2=C3C[C@@H](C)C[C@H](OC)[C@H](O)[C@@H](C)/C=C(\C)[C@H](OC(N)=O)[C@@H](OC)/C=C\C=C(/C)C(=O)NC(=CC2=O)C3=O)CC1 | – | 2960 | 4370 | 11700 | 2.48 | 2.49 | 4860 | 4730 | 2.42 | 4710 | 2.87 | 2.69 | 4090 |
| CO[C@H]1/C=C\C=C(/C)C(=O)NC2=CC(=O)C(NC3CCN(Cc4ccccc4)CC3)=C(C[C@@H](C)C[C@H](OC)[C@H](O)[C@@H](C)/C=C(\C)[C@@H]1OC(N)=O)C2=O | – | – | 1680 | 4880 | 2.64 | 2.76 | 1100 | 1850 | 4.14 | 1770 | 4.83 | 2.9 | 1010 |
| CO[C@@H](/C=C/C=C(/C)C(N)=O)[C@@H](OC(N)=O)/C(C)=C/[C@H](C)[C@@H](O)[C@H](C[C@H](C)CC1=C(NCCCCO)C(=O)C=C(NCCCCO)C1=O)OC | – | – | 4110 | 6360 | 1.49 | 1.51 | 4070 | 4270 | 1.56 | 4210 | 1.4 | 1.55 | 4530 |
| CO[C@@H](C=CC=C(C)C(N)=O)[C@@H](OC(N)=O)/C(C)=C/[C@H](C)[C@@H](O)[C@H](C[C@H](C)CC1=C(NCCO)C(=O)C=C(NCCO)C1=O)OC | – | 134000 | 2380 | 4840 | 1.82 | 2.33 | 2040 | 2660 | 3.42 | 2080 | 2.72 | 2.03 | 2130 |
| CO[C@@H](C=CC=C(C)C(N)=O)[C@@H](OC(N)=O)/C(C)=C/[C@H](C)[C@@H](O)[C@H](C[C@H](C)CC1=C(NCCOCCO)C(=O)C=C(NCCOCCO)C1=O)OC | – | – | 11400 | 31300 | 2.53 | 2.62 | 12600 | 12400 | 2.49 | 12000 | 2.41 | 2.73 | 13000 |
| CO[C@H]1/C=C\C=C(/C)C(=O)NC2=CC(=O)C(NCC3COCCOCCOCCOCCOCCO3)=C(C[C@@H](C)C[C@H](OC)[C@H](O)[C@@H](C)/C=C(\C)[C@@H]1OC(N)=O)C2=O (stereo not given in full) | – | 1190 | 1090 | 4070 | 6.17 | 5.73 | 840 | 660 | 4.85 | 710 | 6.78 | 3.73 | 600 |
| CO[C@H]1/C=C\C=C(/C)C(=O)NC2=CC(=O)C(NNC3=NCCN3)=C(C[C@@H](C)C[C@H](OC)[C@H](O)[C@@H](C)/C=C(\C)[C@@H]1OC(N)=O)C2=O | – | – | 2710 | 3920 | 1.59 | 1.88 | 2090 | 2470 | 1.88 | 2090 | 1.26 | 1.45 | 3110 |
| CO[C@H]1/C=C\C=C(/C)C(=O)NC2=CC(=O)C(NC3CCC(O)CC3)=C(C[C@@H](C)C[C@H](OC)[C@H](O)[C@@H](C)/C=C(\C)[C@@H]1OC(N)=O)C2=O (stereo not given in full) | – | – | 3310 | 8190 | 2.59 | 2.14 | 3710 | 3160 | 2.21 | 3830 | 2.49 | 2.47 | 3290 |
| CO[C@H]1/C=C\C=C(/C)C(=O)NC2=CC(=O)C(NCC3CCC(C(=O)O)CC3)=C(C[C@@H](C)C[C@H](OC)[C@H](O)[C@@H](C)/C=C(\C)[C@@H]1OC(N)=O)C2=O (stereo not given in full) | – | 940 | 2910 | 7370 | 2.64 | 2.82 | 2810 | 2790 | 2.52 | 2610 | 3.12 | 2.53 | 2360 |
| CO[C@@H](/C=C/C=C(/C)C(N)=O)[C@@H](OC(N)=O)/C(C)=C/[C@H](C)[C@@H](O)[C@H](C[C@H](C)CC1=C(NCCCN2CCCC2)C(=O)C=C(NCCCN2CCCC2)C1=O)OC | – | – | 8110 | 20600 | 2.19 | 2.49 | 8490 | 9410 | 2.43 | 8260 | 2.27 | 2.54 | 9070 |
| CCOC(=O)N1CCC(NC2=C3C[C@@H](C)C[C@H](OC)[C@H](O)[C@@H](C)/C=C(\C)[C@H](OC(N)=O)[C@@H](OC)/C=C\C=C(/C)C(=O)NC(=CC2=O)C3=O)CC1 | 2.39 | 890 | 1130 | 5390 | 3.96 | 3.41 | 1090 | – | 4.94 | 1580 | 4.69 | 4.77 | 1150 |
| CO[C@@H](C=CC=C(C)C(N)=O)[C@@H](OC(N)=O)/C(C)=C/[C@H](C)[C@@H](O)[C@H](C[C@H](C)CC1=C(NCCCCCCO)C(=O)C=C(NCCCCCCO)C1=O)OC | – | 183000 | 11000 | – | 1.47 | – | 11400 | 11900 | 1.52 | – | 1.48 | 1.57 | 11700 |
| CO[C@H]1/C=C\C=C(/C)C(=O)NC2=CC(=O)C(NC3CCN(S(C)(=O)=O)CC3)=C(C[C@@H](C)C[C@H](OC)[C@H](O)[C@@H](C)/C=C(\C)[C@@H]1OC(N)=O)C2=O | – | – | 2930 | 6420 | 2.58 | 2.93 | 2330 | 2490 | 2.76 | 2190 | 3.19 | 2.19 | 2010 |
| Nc1ccn([C@@H]2O[C@H](CO)[C@@H](O)[C@@H]2O)c(=O)n1 [CYTARABINE] | – | – | 830 | 5940 | 6 | 6.83 | 850 | 990 | 6.99 | 870 | 7.33 | 7.16 | 810 |
